Values after ≈ are worked out from the molar mass of the structure shown.
Assays:
ECa-109 cell line [1] = assay: Cytotoxicity against vincristine resistant human Eca-109 cells incubated for 48 hrs by CCK-8 method relative to control; type: functional; set-up: concentration or dose not given beside the values
ECa-109 cell line [2] = assay: Reversal of vincristine-resistance in human Eca-109 cells assessed as fold reversal by measuring cell viability incubated for 48 hrs by CCK-8 method relative to vincristine alone; type: functional
[3] = Toxicity in nude mouse assessed as change in body weight at 0.2 mg/kg administered every 2 days for 21 days; type: organism-based; details: in vivo, 48 h, time 2 day
ECa-109 cell line [4] = assay: Reversal of vincristine-resistance in human Eca-109 cells assessed as fold reversal by measuring cell viability at 5 uM incubated for 48 hrs by CCK-8 method relative to vincristine alone; type: functional
ECa-109 cell line [5] = assay: Reversal of VCR -resistance in human Eca-109 cells assessed as cell viability at 5 uM incubated for 48 hrs by CCK-8 method (reference value: 6830.0+/-537.0 nM); type: functional, cell-based; details: ECa-109, 48 h
ECa-109 cell line [6] = assay: Induction of apoptosis in vincristine resistant human Eca-109 cells assessed as late apoptotic cells at 5 uM incubated for 24 hrs in presence of vincristine by AnnexinV-FITC/PI staining based flow cytometric analysis (reference value: 6.01%); type: functional
ECa-109 cell line [7] = assay: Induction of apoptosis in vincristine resistant human Eca-109 cells assessed as viable cells at 5 uM incubated for 24 hrs in presence of vincristine by AnnexinV-FITC/PI staining based flow cytometric analysis (reference value: 89.2%); type: functional; details: read-out: Activity
ECa-109 cell line [8] = assay: Induction of apoptosis in vincristine resistant human Eca-109 cells assessed as necrotic cells at 5 uM incubated for 24 hrs by AnnexinV-FITC/PI staining based flow cytometric analysis (reference value: 0.25%); type: functional
ECa-109 cell line [9] = assay: Induction of apoptosis in vincristine resistant human Eca-109 cells assessed as early apoptotic cells at 5 uM incubated for 24 hrs in presence of vincristine by AnnexinV-FITC/PI staining based flow cytometric analysis (reference value: 4.43%); type: functional
ECa-109 cell line [10] = assay: Induction of apoptosis in vincristine resistant human Eca-109 cells assessed as early apoptotic cells at 5 uM incubated for 24 hrs by AnnexinV-FITC/PI staining based flow cytometric analysis (reference value: 2.30%); type: functional
ECa-109 cell line [11] = assay: Induction of apoptosis in vincristine resistant human Eca-109 cells assessed as late apoptotic cells at 5 uM incubated for 24 hrs by AnnexinV-FITC/PI staining based flow cytometric analysis (reference value: 7.19%); type: functional
ECa-109 cell line [12] = assay: Induction of apoptosis in vincristine resistant human Eca-109 cells assessed as viable cells at 5 uM incubated for 24 hrs by AnnexinV-FITC/PI staining based flow cytometric analysis (reference value: 90.3%); type: functional; details: read-out: Activity
ECa-109 cell line [13] = assay: Induction of apoptosis in vincristine resistant human Eca-109 cells assessed as necrotic cells at 5 uM incubated for 24 hrs in presence of vincristine by AnnexinV-FITC/PI staining based flow cytometric analysis (reference value: 0.35%); type: functional
[14] = Solubility of the compound in water at 25 degree C by shake flask method based UV-spectrophotometric method; type: physicochemical
[15] = biological target: ATP-dependent translocase ABCB1 (Homo sapiens, UniProt P08183); assay: Binding affinity to P-gp in vincristine resistant human Eca-109 cells assessed as stabilization of protein at 67 degree C at 100 uM incubated for 30 mins by thermal shift assay; type: cell-based; details: eca-109, 0.5 h
ATP-dependent translocase ABCB1, sequence (P08183 whole entry): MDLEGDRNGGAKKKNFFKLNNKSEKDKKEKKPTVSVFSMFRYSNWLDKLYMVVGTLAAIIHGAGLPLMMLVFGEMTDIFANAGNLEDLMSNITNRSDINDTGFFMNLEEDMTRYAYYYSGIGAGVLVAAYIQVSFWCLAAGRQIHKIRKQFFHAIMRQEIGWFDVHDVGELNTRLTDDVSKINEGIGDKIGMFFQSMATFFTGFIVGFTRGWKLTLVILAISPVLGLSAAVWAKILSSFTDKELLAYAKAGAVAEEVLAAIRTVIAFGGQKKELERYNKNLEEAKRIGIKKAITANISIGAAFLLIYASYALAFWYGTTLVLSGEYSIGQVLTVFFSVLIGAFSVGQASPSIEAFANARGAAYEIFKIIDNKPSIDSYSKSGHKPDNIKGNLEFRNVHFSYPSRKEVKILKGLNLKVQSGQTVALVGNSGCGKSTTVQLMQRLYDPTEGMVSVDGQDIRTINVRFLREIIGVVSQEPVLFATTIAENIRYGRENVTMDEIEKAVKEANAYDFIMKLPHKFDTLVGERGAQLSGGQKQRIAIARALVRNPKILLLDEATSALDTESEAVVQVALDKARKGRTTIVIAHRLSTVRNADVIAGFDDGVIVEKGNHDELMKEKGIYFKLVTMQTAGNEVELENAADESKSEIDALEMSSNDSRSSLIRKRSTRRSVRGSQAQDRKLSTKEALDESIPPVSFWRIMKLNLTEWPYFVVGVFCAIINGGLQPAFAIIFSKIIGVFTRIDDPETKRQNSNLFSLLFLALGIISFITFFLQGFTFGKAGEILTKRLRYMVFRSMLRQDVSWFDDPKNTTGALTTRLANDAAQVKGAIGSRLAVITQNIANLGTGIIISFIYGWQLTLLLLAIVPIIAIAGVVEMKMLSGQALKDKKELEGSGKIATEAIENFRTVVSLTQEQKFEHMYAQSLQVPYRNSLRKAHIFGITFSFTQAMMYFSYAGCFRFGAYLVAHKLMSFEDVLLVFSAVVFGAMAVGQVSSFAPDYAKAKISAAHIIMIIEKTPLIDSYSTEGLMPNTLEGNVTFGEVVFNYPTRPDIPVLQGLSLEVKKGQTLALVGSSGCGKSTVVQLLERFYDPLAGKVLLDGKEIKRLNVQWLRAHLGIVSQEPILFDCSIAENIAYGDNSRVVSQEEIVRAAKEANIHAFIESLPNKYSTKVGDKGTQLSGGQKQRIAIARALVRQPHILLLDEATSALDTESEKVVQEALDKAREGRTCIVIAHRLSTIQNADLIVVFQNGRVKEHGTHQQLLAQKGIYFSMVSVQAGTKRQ

Structure (SMILES) | Activity (ECa-109 cell line [1]) [%] | fold change (FC) (ECa-109 cell line [2]) | further results
CCC1c2cc(OC)c(OC)cc2CCN1C (stereo unspecified) | 90.6 | 4.2 | 
COc1cc2c(cc1OC)C(C)N(C)CC2 (stereo unspecified) | 91.1 | 2.6 | 
COc1cc2c(cc1OC)C(Cc1ccc(C(F)(F)F)cc1)N(C)CC2 (stereo unspecified) | 91.7 | 3.5 | 
COc1cc2c(cc1OC)C(Cc1ccc(I)cc1)N(C)CC2 (stereo unspecified) | 99 | 2.9 | 
COc1cc2c(cc1OC)C(=O)N(C)CC2 | 98.4 | 3.2 | 
COc1cc2c(cc1OC)CN(C)CC2 | 90.9 | 7.7 | 
COc1cc2c(cc1OC)C(Cc1ccc(C)cc1)N(C)CC2 (stereo unspecified) | 95.9 | 4.5 | 
CN1CCc2ccccc2C1=O | 91.3 | 2.5 | 
CC[C@]1(O)C[C@H]2CN(CCc3c([nH]c4ccccc34)[C@@](C(=O)OC)(c3cc4c(cc3OC)N(C=O)[C@H]3[C@@](O)(C(=O)OC)[C@H](OC(C)=O)[C@]5(CC)C=CCN6CC[C@]43[C@@H]65)C2)C1 [VINCRISTINE] |  |  | Activity [3]: Non-Toxic
COc1cc2c(cc1OC)C(Cc1ccc(OC)c(OCC3CCCCC3)c1)N(C)CC2 (stereo unspecified) | 88.1 | 140.3 | 
COc1cc2c(cc1OC)C(Cc1ccc(Br)cc1)N(C)CC2 (stereo unspecified) | 92.8 | 1.6 | 
COc1cc2c(cc1OC)C(Cc1ccc(OCCC3CCCCC3)c(OC)c1)N(C)CC2 (stereo unspecified) | 54.3 | 166.4 | 
COc1cc2c(cc1OC)C(Cc1ccc(C#N)cc1)N(C)CC2 (stereo unspecified) | 99.8 | 3.6 | 
COc1cc(Br)c(CC2c3cc(OC)c(OC)cc3CCN2C)cc1OC (stereo unspecified) | 93.4 | 16 | 
COc1cc2c(cc1OC)C(Cc1ccc(F)cc1)N(C)CC2 (stereo unspecified) | 99.3 | 2.8 | 
COc1cc2c(cc1OC)C(Cc1cccc(Cl)c1)N(C)CC2 (stereo unspecified) | 89 | 23.6 | 
COc1ccc2cc1Oc1ccc(cc1)C[C@H]1c3c(cc4c(c3Oc3cc5c(cc3OC)CCN(C)[C@@H]5C2)OCO4)CCN1C [CEPHARANTHINE] |  |  | fold change (FC) (ECa-109 cell line [4]): 15.6; IC50 (ECa-109 cell line [5]): 0.437 µM
COc1cc2c(cc1OC)C(Cc1ccccc1O)N(C)CC2 (stereo unspecified) | 98.9 | 7.1 | 
CN1CCc2cc(Br)ccc2C1=O | 88.6 | 2 | 
CCOC(=O)CCCOc1cc(CC2c3cc(OC)c(OC)cc3CCN2C)ccc1OC (stereo unspecified) | 86.7 | 219.3 | 
COc1cc2c(cc1OC)C(Cc1ccc(OC)c(OCC3CCOCC3)c1)N(C)CC2 (stereo unspecified) | 94.4 | 126.8 | 
COc1cc(CC2c3cc(OC)c(OC)cc3CCN2C)ccc1O (stereo unspecified) | 90.3 | 2.8 | 
COc1ccc(CCN(C)CCCC(C#N)(c2ccc(OC)c(OC)c2)C(C)C)cc1OC (stereo unspecified) [VERAPAMIL] | 95.6 | 10.1 | Activity (ECa-109 cell line [6]): 10.5%; viability at 5 µM (ECa-109 cell line [7]): 68.8%; Activity (ECa-109 cell line [8]): 0.12%; Activity (ECa-109 cell line [9]): 20.3%; Activity (ECa-109 cell line [10]): 2.65%; Activity (ECa-109 cell line [11]): 7.92%; fold change (FC) (ECa-109 cell line [4]): 10.1; viability at 5 µM (ECa-109 cell line [12]): 89.3%; IC50 (ECa-109 cell line [5]): 0.679 µM; Activity (ECa-109 cell line [13]): 0.48%

Structure (SMILES) | Activity (ECa-109 cell line [1]) [%] | fold change (FC) (ECa-109 cell line [2]) | further results
COc1cc2c(cc1OC)C(Cc1cccc(O)c1)N(C)CC2 (stereo unspecified) | 99.2 | 4.3 | 
COc1cc2c(cc1OC)C(CC(F)(F)F)N(C)CC2 (stereo unspecified) | 88.2 | 3 | 
COc1cc2c(cc1OC)C(CC(C)C)N(C)CC2 (stereo unspecified) | 96.1 | 3.3 | 
COc1cc2c(cc1OC)C(Cc1ccccc1Cl)N(C)CC2 (stereo unspecified) | 96.3 | 13.4 | 
COc1ccc(CC2c3cc(OC)c(OC)cc3CCN2C)cc1OC (stereo unspecified) [LAUDANOSINE] | 90.7 | 12.9 | 
COc1ccc(CC2c3cc(OC)c(OC)cc3CCN2C)cc1 (stereo unspecified) | 96.3 | 7.4 | 
COc1cc2c(cc1OC)C1Cc3ccc(OC)c(O)c3CN1CC2 (stereo unspecified) | 74.2 | 1.2 | 
COc1ccc(CC2c3cc(OC)c(OC)cc3CCN2C)cc1O (stereo unspecified) | 903 | 2.5 | 
COc1cc2c(cc1OC)C(Cc1ccc(Cl)cc1)N(C)CC2 (stereo unspecified) | 93 | 8.6 | 
COc1cc2c(cc1OC)C(Cc1ccc(OC)c(OCCC3CCCCC3)c1)N(C)CC2 (stereo unspecified) | 81 | 143.3 | 
COc1cc2c(cc1OC)C(Cc1ccc(OC)c(OCCC(C)C)c1)N(C)CC2 (stereo unspecified) | 87.1 | 205.7 | 
CCOc1ccc(CC2c3cc(OC)c(OC)cc3CCN2C)cc1OC (stereo unspecified) | 88 | 11.7 | 
COc1cc2c(cc1OC)C(Cc1ccc(O)cc1)N(C)CC2 (stereo unspecified) | 98.1 | 2.8 | 
COc1cc2c(cc1OC)C(c1ccc(O)cc1)N(C)CC2 (stereo unspecified) | 87.7 | 1.8 | 
COc1ccc(C[C@@H]2c3cc(Oc4cc(C[C@@H]5c6cc(OC)c(OC)cc6CCN5C)ccc4O)c(OC)cc3CCN2C)cc1 [NEFERINE] |  |  | fold change (FC) (ECa-109 cell line [4]): 1.8; IC50 (ECa-109 cell line [5]): 3.79 µM
COc1cc2c(cc1OC)C(CC1CCCCC1)N(C)CC2 (stereo unspecified) | 89.9 | 3.7 | 
COc1ccc2cc1Oc1ccc(cc1)C[C@H]1c3cc(c(OC)cc3CCN1C)Oc1c(OC)c(OC)cc3c1[C@H](C2)N(C)CC3 [FANCHININ] | 87.1 | 232.6 | Activity (ECa-109 cell line [6]): 13.1%; viability at 5 µM (ECa-109 cell line [7]): 67.5%; Activity (ECa-109 cell line [8]): 0.15%; Activity (ECa-109 cell line [9]): 18.8%; solubility thermodynamic [14]: 14.6 µg/mL (≈ 23.4 µM); Activity (ECa-109 cell line [10]): 3.68%; Activity (ECa-109 cell line [11]): 8.01%; fold change (FC) (ECa-109 cell line [4]): 232.6; viability at 5 µM (ECa-109 cell line [12]): 88.2%; IC50 (ECa-109 cell line [5]): 0.0294 µM; Activity (ECa-109 cell line [13]): 0.54%
COc1cc2c(cc1OC)C(Cc1ccccc1)N(C)CC2 (stereo unspecified) | 93.7 | 4.4 | 
COc1cc2c(cc1OC)C(Cc1ccc(OC)c(OCc3ccccc3)c1)N(Cc1ccccc1)CC2 (stereo unspecified) | 68.8 | 42.7 | 
COc1cc2c(cc1OC)C(Cc1ccc3c(c1)OCO3)N(C)CC2 (stereo unspecified) | 90.8 | 5 | 
COc1cc2c(cc1OC)CN(CCc1ccc(NC(=O)c3cc(OC)c(OC)cc3NC(=O)c3cnc4ccccc4c3)cc1)CC2 [TARIQUIDAR] | 85.9 | 187.4 | Activity [15]: Active
COc1cc2c(cc1OC)C(Cc1ccc([N+](=O)[O-])cc1)N(C)CC2 (stereo unspecified) | 87.1 | 2.3 | 

Reference: ChEMBL document CHEMBL5247655, “Simplified Derivatives of Tetrandrine as Potent and Specific P-gp Inhibitors to Reverse Multidrug Resistance in Cancer Chemotherapy” (J Med Chem, 2023)
